Laboratory results as given in US10471043B2, “Compounds and methods of treating bacterial infections” (ULTUPHARMA AB, priority 2015, dated 2019).
Values after ≈ are worked out from the molar mass of the structure shown. Like-named read-outs stand apart in the source and are kept apart here.

Assays:
[1] = test system: Staphylococcus aureus strain LMG15975; test: MIC by broth micro-dilution, AM3/PBS 1:1; format: cell-based
Description: (§1) At first (Table 1), MIC is determined by broth micro-dilution method. The test medium is Antibiotic Medium 3 (AM3; Difco Ltd) mixed with Phosphate Buffered Saline (PBS) in proportions 1:1. Selected MIC values are verified using cation-adjusted Mueller Hinton Broth (MHB; BD). Cell concentration of tested pathogen is adjusted to between 3 and 5×10^5 cells per ml. To verify cell concentration of tested pathogen, viable cell counts are performed directly after each MIC-test by dilution method with PBS as a dilution solvent. Cells are counted on the agar plates with 50% strength Vegetable Peptone Broth (50% VPB; Oxoid Ltd) after 16 to 20 h of incubation at 37° C.
(§2) Cells of pathogen suspended in test medium are distributed to the wells and the plates are incubated for 16 to 20 h at 37° C. Negative controls are wells with the test medium only and positive controls are wells with the pathogen in test medium. The MIC is defined as the lowest concentration of each compound with no visible growth of pathogen.
Example compounds of formula I were examined for antibacterial activity against the Gram-positive bacterium Staphylococcus aureus strain LMG15975 using the above described method (Table 1).

A. baumannii = test: MIC by broth micro-dilution; format: cell-based; settings: Acinetobacter baumannii, A. baumannii (G−), Table 2; read-out: MIC (μg/ml) A. baumannii
Description: as §1, §2

[2] = Cytotoxicity assay, WST-8; settings: human, HepG2 cells, CC50 (μg/mL), HepG2, 48 hours, Table 1
[3] = LMG15975, S. aureus LMG15975, Table 1, read-out: MIC
[4] = LMG15975, S. aureus LMG15975, Table 1, read-out: MIC (μg/ml)
[5] = LMG15975, S. aureus (G+), Table 2, read-out: MIC (μg/ml) S. aureus

Structure (SMILES) | MIC [1, 3] | MIC [1, 4] | MIC [1, 5] | MIC (A. baumannii) | CC50 at 48 h [2]
CCCCCCCCCC1CC(O)=C(C(=O)CCOC)C(=O)O1 (centres unmarked) [Ex. 24, 4-hydroxy-3-(3-methoxypropanoyl)-6-nonyl-5,6-dihydro-2H-pyran-2-one] | 6.1 to 15 µM | 2 to 5 µg/mL | – | – | –
N#CCCCCCCCC1CC(O)=C(C(=O)CC2CCCCC2)C(=O)O1 (centres unmarked) [Ex. 28, 8-(5-(2-cyclohexylacetyl)-4-hydroxy-6-oxo-3,6-dihydro-2H-pyran-2-yl)octanenitrile] | > 55 µM | > 20 µg/mL | – | – | –
CCCC(=O)C1=C(O)CC(CCCCCCCOC)OC1=O (centres unmarked) [Ex. 20, 3-butyryl-4-hydroxy-6-(7-methoxyheptyl)-5,6-dihydro-2H-pyran-2-one] | 64 to 96 µM | 20 to 30 µg/mL | – | – | 80 µM
CCCC(=O)C1=C(O)CC(CC2CCCC2)OC1=O (centres unmarked) [Ex. 22, 3-butyryl-6-(cyclopentylmethyl)-4-hydroxy-5,6-dihydro-2H-pyran-2-one] | 22 to 45 µM | 6 to 12 µg/mL | – | – | –
N#CCCCCCCCC1CC(O)=C(C(=O)CC2CCOCC2)C(=O)O1 (centres unmarked) [Ex. 27, 8-(4-hydroxy-6-oxo-5-(2-(tetrahydro-2H-pyran-4-yl)acetyl)-3,6-dihydro-2H-pyran-2-yl)octanenitrile] | 5.5 to 14 µM | 2 to 5 µg/mL | – | – | –
COCCCCCCC1CC(O)=C(C(=O)CC2CC2)C(=O)O1 (centres unmarked) [Ex. 25, 3-(2-cyclopropylacetyl)-4-hydroxy-6-(6-methoxyhexyl)-5,6-dihydro-2H-pyran-2-one] | > 64 µM | > 20 µg/mL | – | – | –
CCCC(=O)C1=C(O)CC(CC(C)CCC=C(C)C)OC1=O (centres unmarked) [Ex. 21, 3-butyryl-6-(2,6-dimethylhept-5-enyl)-4-hydroxy-5,6-dihydro-2H-pyran-2-one] | 6.5 to 9.7 µM | 2 to 3 µg/mL | – | – | –
COCCCCCCC1CC(O)=C(C(=O)CC2CCCC2)C(=O)O1 (centres unmarked) [Ex. 23, 3-(2-cyclopentylacetyl)-4-hydroxy-6-(6-methoxyhexyl)-5,6-dihydro-2H-pyran-2-one] | 29 to 59 µM | 10 to 20 µg/mL | – | – | –

Further lines, with some results ahead:

MIC [1, 3] | MIC [1, 4] | MIC [1, 5] | MIC (A. baumannii) | Structure (SMILES) | CC50 at 48 h [2]
2.1 to 4.3 µM | 1.5 to 2.5 µg/mL | 1.5 to 2.5 µg/mL | > 64 µg/mL | CCCCCCCCCC1CC(O)=C(C(C)=O)C(=O)O1 (centres unmarked) [Ex. 9, 3-acetyl-4-hydroxy-6-nonyl-5,6-dihydro-2H-pyran-2-one] | 71 µM
1.8 to 2.4 µM | 0.6 to 0.8 µg/mL | 0.6 to 0.8 µg/mL | 4 to 8 µg/mL (≈ 11.8 to 23.6 µM) | CCCCCCCCCC1CC(O)=C(C(=O)CCCCC)C(=O)O1 (centres unmarked) [Ex. 18, 3-hexanoyl-4-hydroxy-6-nonyl-5,6-dihydro-2H-pyran-2-one] | 15 µM
9.3 µM | 2.5 µg/mL | – | – | CCCCCCCCC1CC(O)=C(C(C)=O)C(=O)O1 (centres unmarked) [Ex. 7, 3-acetyl-4-hydroxy-6-octyl-5,6-dihydro-2H-pyran-2-one] | 65 µM
2.7 to 4 µM | 0.8 to 1.2 µg/mL | – | – | CCCCCCCCCCC1CC(O)=C(C(C)=O)C(=O)O1 (centres unmarked) [Ex. 11, 3-acetyl-6-decyl-4-hydroxy-5,6-dihydro-2H-pyran-2-one] | 40 µM
4.3 µM | 1.2 µg/mL | – | – | CCCCCCCCC1CC(O)=C(C(=O)CC)C(=O)O1 (centres unmarked) [Ex. 6, 4-hydroxy-6-octyl-3-propionyl-5,6-dihydro-2H-pyran-2-one] | 55 µM
1.4 to 2.7 µM | 0.5 to 1 µg/mL | – | – | CCCCCCCCCC1CC(O)=C(C(=O)CC2CCOCC2)C(=O)O1 (centres unmarked) [Ex. 26, 4-hydroxy-6-nonyl-3-(2-(tetrahydro-2H-pyran-4-yl)acetyl)-5,6-dihydro-2H-pyran-2-one] | –
1.2 to 1.8 µM | 0.4 to 0.6 µg/mL | – | – | CCCCCCCCCCC1CC(O)=C(C(=O)CCCC)C(=O)O1 (centres unmarked) [Ex. 3, 6-decyl-4-hydroxy-3-pentanoyl-5,6-dihydro-2H-pyran-2-one] | 13 µM
0.6 to 1.2 µM | 0.2 to 0.4 µg/mL | – | – | CCCCCCCCCC1CC(O)=C(C(=O)CC(C)C)C(=O)O1 (centres unmarked) [Ex. 15, 4-hydroxy-3-(3-methylbutanoyl)-6-nonyl-5,6-dihydro-2H-pyran-2-one] | 21 µM
